Reference: patent US8541449B2, “Substituted isoquinolines and isoquinolinones as Rho kinase inhibitors” (Sanofi, priority 2008, dated 2013)

Key:
Type in all cases: biochemical
[1] = target: T1, recombinant human PKG1-beta (Homo sapiens, UniProt Q13976); assay: Determination of Protein Kinase G inhibition (Caliper peptide phosphorylation assay); conditions: recombinant human PKG1-beta versus ROCK II
T1 construct: Active recombinant human PKG1-beta (full-length, with N-terminal His-tag); His-tag (N); purchased Millipore GmbH, Schwalbach, Germany
T1 sequence (Q13976 1-686 isoform Q13976-2): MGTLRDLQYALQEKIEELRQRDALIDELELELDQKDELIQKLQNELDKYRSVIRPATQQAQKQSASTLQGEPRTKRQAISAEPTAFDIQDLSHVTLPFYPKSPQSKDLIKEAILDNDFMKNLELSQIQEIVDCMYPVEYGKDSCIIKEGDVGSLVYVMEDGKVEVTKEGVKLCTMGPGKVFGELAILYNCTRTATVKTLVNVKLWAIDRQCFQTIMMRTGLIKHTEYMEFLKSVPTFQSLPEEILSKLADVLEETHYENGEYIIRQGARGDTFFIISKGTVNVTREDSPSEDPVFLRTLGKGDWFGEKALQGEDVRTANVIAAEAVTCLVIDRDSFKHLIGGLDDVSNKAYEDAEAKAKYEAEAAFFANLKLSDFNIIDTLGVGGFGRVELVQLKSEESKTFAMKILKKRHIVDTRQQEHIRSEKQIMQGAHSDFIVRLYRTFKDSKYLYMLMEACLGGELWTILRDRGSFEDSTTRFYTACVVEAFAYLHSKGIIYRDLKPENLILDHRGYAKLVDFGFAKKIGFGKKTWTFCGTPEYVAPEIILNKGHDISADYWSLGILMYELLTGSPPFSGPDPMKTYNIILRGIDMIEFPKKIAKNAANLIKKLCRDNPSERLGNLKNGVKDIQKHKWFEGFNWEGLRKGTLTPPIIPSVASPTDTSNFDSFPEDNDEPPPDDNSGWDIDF
Experimental: (§1) Determination of Protein Kinase A and Protein Kinase G Inhibition
(§2) To measure PKA and PKG1-beta inhibition, IC50 values were determined according to the following protocol:
(§3) Active recombinant human PKG1-beta (full-length, with N-terminal His-tag) was purchased from Millipore GmbH, Schwalbach, Germany. Active recombinant human PKA (residues 1-351, N-terminal His-tag) was obtained from Invitrogen, Karlsruhe, Germany. The peptide substrate, Fluorescein-[…]-COOH, was obtained from JPT Peptide Technologies, Berlin, Germany. Adenosine-5′-triphosphate (ATP), bovine serum albumine (BSA), dimethylsulphoxide (DMSO), 4-(2-Hydroxyethyl)piperazine-1-ethanesulfonic acid (Hepes), Brij-35, dithiothreitol (DTT) and Pluronic F-68 were purchased from Sigma-Aldrich, Munich, Germany. Tris(hydroxymethyl)-aminomethane (Tris), magnesium chloride, NaOH, 1M HCl and EDTA were obtained from Merck Biosciences, Darmstadt, Germany. “Complete” protease inhibitor was from Roche Diagnostics, Mannheim, Germany.
(§4) Test compounds were diluted to the appropriate concentrations in buffer 1 (25 mM Tris-HCl, pH 7.4, 5 mM MgCl2, 2 mM DTT, 0.02% (w/v) BSA, 0.01% Pluronic F-68 and 3% DMSO). PKG1-beta and PKA were diluted to concentrations of 150 ng/ml and 30 ng/ml, respectively, in buffer 2. The peptide substrate and ATP were diluted to concentrations of 3 μM and 120 μM, respectively, in the buffer 2. Two μl of the compound solution were mixed with 2 μl of the diluted enzyme in a 384-well small volume microtiter plate (Greiner, Bio-One, Frickenhausen, Germany), and the kinase reaction was initiated by addition of 2 μl of the solution containing peptide substrate and ATP. After 60 min incubation at 32° C., the reaction was stopped by addition of 20 μl of a solution containing 100 mM Hepes-NaOH, pH 7.4, 0.015% (v/v) Brij-35, 45 mM EDTA and 0.227% chip coating reagent 1 (Caliper Lifescience Inc, Hopkinton, Mass.). Phosphorylation of the substrate peptide was then detected on a Caliper 3000 instrument essentially as described by Pommereau et al (J. Biomol. Screening 9(5), 409-416, 2004). Separation conditions were as follows: Pressure −1.3 psi, upstream voltage −1562 V, downstream voltage −500 V, sample sip time 200 ms. Positive controls (buffer 1 instead of compound) and negative controls (buffer 1 instead of compound and buffer 2 instead of kinase solution) were run in parallel on each plate. The following products/compounds were tested in said assay by using the respective form (salt or free base) obtained as in the examples described above and the following activities were measured.

recombinant human PKA = target: T2, recombinant human PKA (Homo sapiens, UniProt P17612); assay: Determination of Protein Kinase A inhibition (Caliper peptide phosphorylation assay); conditions: recombinant human PKA versus ROCK II
T2 construct: Active recombinant human PKA (residues 1-351, N-terminal His-tag); His-tag (N); purchased Invitrogen, Karlsruhe, Germany
Experimental: as §1, §2, §3, §4

[2] = target: T3, human recombinant ROCK II (Homo sapiens, UniProt O75116); assay: Determination of Rho kinase inhibition (Caliper peptide phosphorylation assay); conditions: 60 min at 32° C., negative decadal logarithm of the IC50
T3 construct: N-terminal His6-tagged recombinant human ROCK-II residues 11-552; His6 (N); purchased Millipore GmbH, Schwalbach, Germany
Experimental: Determination of Rho Kinase Inhibition
To measure Rho-kinase inhibition, IC50 values were determined according to the following protocol:
Active human recombinant ROCK II (N-terminal His6-tagged recombinant human ROCK-II residues 11-552) was purchased from Millipore GmbH, Schwalbach, Germany. The peptide substrate, Fluorescein-[…]-COOH, was obtained from JPT Peptide Technologies, Berlin, Germany. Adenosine-5′-triphosphate (ATP), bovine serum albumine (BSA), dimethylsulphoxide (DMSO), 4-(2-Hydroxyethyl)piperazine-1-ethanesulfonic acid (Hepes), Brij-35, dithiothreitol (DTT) and Pluronic F-68 were purchased from Sigma-Aldrich, Munich, Germany. Tris(hydroxymethyl)-aminomethane (Tris), magnesium chloride, NaOH, 1M HCl and EDTA were obtained from Merck Biosciences, Darmstadt, Germany. “Complete” protease inhibitor was from Roche Diagnostics, Mannheim, Germany.
Test compounds were diluted to the appropriate concentrations in buffer 1 (25 mM Tris-HCl, pH 7.4, 5 mM MgCl2, 2 mM DTT, 0.02% (w/v) BSA, 0.01% Pluronic F-68 and 3% DMSO). The ROCK II enzyme was diluted to a concentration of 100 ng/mL in buffer 2 (25 mM Tris-HCl, pH 7.4, 5 mM MgCl2, 2 mM DTT and 0.02% (w/v) BSA). The peptide substrate and ATP were diluted to concentrations of 3 μM and 120 μM, respectively, in the buffer 2. Two μl of the compound solution were mixed with 2 μl of the diluted enzyme in a 384-well small volume microtiter plate (Greiner, Bio-One, Frickenhausen, Germany), and the kinase reaction was initiated by addition of 2 μl of the solution containing peptide substrate and ATP. After 60 min incubation at 32° C., the reaction was stopped by addition of 20 μl of a solution containing 100 mM Hepes-NaOH, pH 7.4, 0.015% (v/v) Brij-35, 45 mM EDTA and 0.227% chip coating reagent 1 (Caliper Lifescience Inc, Hopkinton, Mass.). Phosphorylation of the substrate peptide was then detected on a Caliper 3000 instrument essentially as described by Pommereau et al (J. Biomol. Screening 9(5), 409-416, 2004). Separation conditions were as follows: Pressure −1.3 psi, upstream voltage −1562 V, downstream voltage −500 V, sample sip time 200 ms. Positive controls (buffer 1 instead of compound) and negative controls (buffer 1 instead of compound and buffer 2 instead of ROCK II) were run in parallel on each plate.
The following products/compounds were tested in said assay by using the respective form (salt or free base) obtained as in the examples described above and the following activities were measured

T3 sequence (O75116 11-552): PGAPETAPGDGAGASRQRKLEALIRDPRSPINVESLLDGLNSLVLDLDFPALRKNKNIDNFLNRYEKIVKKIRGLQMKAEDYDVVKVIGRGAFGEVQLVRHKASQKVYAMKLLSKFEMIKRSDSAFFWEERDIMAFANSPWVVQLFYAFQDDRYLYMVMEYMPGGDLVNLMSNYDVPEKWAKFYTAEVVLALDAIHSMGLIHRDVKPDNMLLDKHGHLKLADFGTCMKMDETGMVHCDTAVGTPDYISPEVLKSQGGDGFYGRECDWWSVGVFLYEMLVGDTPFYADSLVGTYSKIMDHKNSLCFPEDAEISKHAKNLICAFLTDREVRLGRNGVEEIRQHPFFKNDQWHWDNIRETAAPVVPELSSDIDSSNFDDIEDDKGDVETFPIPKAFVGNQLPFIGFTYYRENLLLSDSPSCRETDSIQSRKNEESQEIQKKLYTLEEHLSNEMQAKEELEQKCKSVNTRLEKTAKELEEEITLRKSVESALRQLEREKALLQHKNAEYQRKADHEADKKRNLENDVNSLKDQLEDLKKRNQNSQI

Structure (SMILES) | Selectivity against PKG [1] | Selectivity against PKA (recombinant human PKA) | IC50 [2] [nM] | pIC50 [2]
COc1ccc(C(N)[C@H]2CC[C@@H](Oc3cc4cc[nH]c(=O)c4cc3Cl)CC2)cc1 (single isomer, unassigned) [Example 35, 6-{4-[Amino-(4-methoxy-phenyl)-methyl]-cyclohexyloxy}-7-chloro-2H-isoquinolin-1-one] | >100 | >1000 | ≤ 10 | 
COc1ccc(C(N)[C@H]2CC[C@@H](Oc3cc4cc[nH]c(=O)c4cc3Cl)CC2)cc1 (single isomer, unassigned) [Example 36, 6-{4-[Amino-(4-methoxy-phenyl)-methyl]-cyclohexyloxy}-7-chloro-2H-isoquinolin-1-one] | >300 | >300 | 10 to 100 | 
NC(c1ccc(F)cc1)C1CCC(Oc2cc3cc[nH]c(=O)c3cc2Cl)CC1 (single isomer, unassigned) [Example 37, 6-{4-[Amino-(4-fluoro-phenyl)-methyl]-cyclohexyloxy}-7-chloro-2H-isoquinolin-1-one] | >300 | >1000 | ≤ 10 | 
Cc1ccc(C(N)C2CCC(Oc3cc4cc[nH]c(=O)c4cc3Cl)CC2)cc1 (single isomer, unassigned) [Example 38, 6-[4-(Amino-p-tolyl-methyl)-cyclohexyloxy]-7-chloro-2H-isoquinolin-1-one] | >300 | >1000 | ≤ 10 | 
Cc1ccc(C(N)C2CCC(Oc3cc4cc[nH]c(=O)c4cc3Cl)CC2)cc1 (single isomer, unassigned) [Example 39, 6-[4-(Amino-p-tolyl-methyl)-cyclohexyloxy]-7-chloro-2H-isoquinolin-1-one] | >100 | >100 | 10 to 100 | 
NC(c1ccccc1)C1(c2ccccc2)CCC(Oc2cc3cc[nH]c(=O)c3cc2Cl)CC1 (single isomer, unassigned) [Example 41] | >10 | >10 | 100 to 1000 | 
NC(c1ccccc1)C1(c2ccccc2)CCC(Oc2cc3cc[nH]c(=O)c3cc2Cl)CC1 (single isomer, unassigned) [Example 42] | >300 | >300 | 10 to 100 | 
CC(N)(c1ccc(F)cc1)C1CCC(Oc2cc3cc[nH]c(=O)c3cc2Cl)CC1 (single isomer, unassigned) [Example 116, 6-{4-[1-Amino-1-(4-fluoro-phenyl)-ethyl]-cyclohexyloxy}-7-chloro-2H-isoquinolin-1-one] | >10 | >100 | 10 to 100 | 
CC(N)(C1CCC(Oc2cc3cc[nH]c(=O)c3cc2Cl)CC1)C1CC1 (single isomer, unassigned) [Example 120, 6-{4-[1-Amino-1-cyclopropyl-ethyl]-cyclohexyloxy}-7-chloro-2H-isoquinolin-1-one] | >10 | >100 | 100 to 1000 | 
CCCC(C)(N)C1CCC(Oc2cc3cc[nH]c(=O)c3cc2Cl)CC1 (single isomer, unassigned) [Example 121, 6-{4-[1-Amino-1-n-propyl-ethyl]-cyclohexyloxy}-7-chloro-2H-isoquinolin-1-one] | >10 | >100 | 10 to 100 | 
CCC(N)(CC)C1CCC(Oc2cc3cc[nH]c(=O)c3cc2Cl)CC1 (single isomer, unassigned) [Example 122, 6-{-4-[1-Amino-1-ethyl-propyl]-cyclohexyloxy}-7-chloro-2H-isoquinolin-1-one] | >10 | >300 | 10 to 100 | 
CC(N)(c1ccccc1)C1CCC(Oc2cc3cc[nH]c(=O)c3cc2Cl)CC1 (single isomer, unassigned) [Example 123, 6-{4-[1-Amino-1-phenyl-ethyl]-cyclohexyloxy}-7-chloro-2H-isoquinolin-1-one] | >10 | >100 | 10 to 100 | 
CCC(N)C1CCC(Oc2cc3cc[nH]c(=O)c3cc2Cl)CC1 (single isomer, unassigned) [Example 129, 6-[4-(1-Amino-propyl)-cyclohexyoxy]-7-chloro-2H-isoquinolin-1-one] | >10 | >100 | 10 to 100 | 
CCC(N)C1CCC(Oc2cc3cc[nH]c(=O)c3cc2Cl)CC1 (single isomer, unassigned) [Example 130, 6-[4-(1-Amino-propyl)-cyclohexyloxy]-7-chloro-2H-isoquinolin-1-one] | >10 | >300 |  | ++++++ (7.0≦pIC50<8.0)
NC(C1CCC(Oc2cc3cc[nH]c(=O)c3cc2Cl)CC1)C1CC1 (single isomer, unassigned) [Example 131, 6-[4-(Amino-cyclopropyl-methyl)-cyclohexyloxy]-7-chloro-2H-isoquinolin-1-one] | >10 | >10 | 100 to 1000 | 
